{"source": "patent US20070048371A1", "about": "“Pharmaceutical formulations/composition of guanfacine suitable for single dose form administration daily” (priority 2005, published 2007)", "key": {"[1]": {"assay": "Example 3: Phase I single-dose crossover bioequivalence/dose proportionality study, 1 mg, 2 mg, 4 mg tablets, healthy adult volunteers", "assay_type": "in vivo, human", "details": "for Vd/F: Vz/F; for half-life: t1/2", "experimental": "Objectives: The study was designed to assess the bioequivalence of guanfacine 2 mg and 4 mg tablets from table 2 and to investigate the dose proportionality of 1 mg, 2 mg, and 4 mg doses.\nMethods: This was a Phase I, randomized, open-label, single-dose, five period, four-treatment crossover design with a separate lead-in period.\nForty-nine (49) healthy adult volunteers completed the study. During period 1, all subjects received a single 1 mg dose administered after and overnight fast. Prior to period 2, subjects were randomly assigned to one of four sequence groups, with 13 subjects per sequence. During treatment periods 2-5, subjects received their assigned treatment of 2 mg or 4 mg. All subjects were to receive two single doses of 2 mg tablets and two single doses of 4 mg tablets during the course of the study. Doses during periods 2-5 were also administered after an overnight fast."}, "[2]": {"assay": "Example 4: Phase I single-dose crossover bioequivalence study, 2.5 mg versus 2 mg tablets, healthy adult volunteers", "assay_type": "in vivo, human", "details": "for AUC(0-t): AUC0-last; for Vd/F: Vz/F", "experimental": "Objectives: The objective of this study was to investigate the bioequivalence of guanfacine 2.5 mg tablets versus guanfacine 2 mg tablets.\nMethods: This Phase I study utilized a randomized, open-label, single-dose, three-treatment crossover design. Forty-eight (48) healthy adult volunteers completed the study. All subjects were randomly assigned to one of 6 treatment sequences and received a 2 mg and 2.5 mg tablet of guanfacine. During treatment periods 1-3, subjects received their assigned treatment (a single oral dose 2 mg or 2.5 mg after an overnight fast)."}}}
{"compound": "N=C(N)NC(=O)Cc1c(Cl)cccc1Cl", "note": "[guanfacine]", "values": [{"measurement": "AUC(0-inf)", "setting": "[1]; human, in vivo, 4 mg, AUC∞", "result": "~125", "unit": "ng·h/mL"}, {"measurement": "Cmax", "setting": "[1]; human, in vivo, 4 mg, mean Cmax", "result": "~3.58", "unit": "ng/mL"}, {"measurement": "Tmax", "setting": "[1]; human, in vivo, 4 mg, median Tmax", "result": "~5", "unit": "h"}, {"measurement": "CL/F", "setting": "[1]; human, in vivo, po, 1 mg", "result": "560 ± 194", "unit": "mL/mm"}, {"measurement": "AUC(0-t)", "setting": "[1]; human, in vivo, po, 1 mg, AUC0-t", "result": "29.3 ± 8.84", "unit": "ng·h/mL"}, {"measurement": "AUC(0-inf)", "setting": "[1]; human, in vivo, po, 1 mg, AUC0-∞", "result": "32.4 ± 8.78", "unit": "ng·h/mL"}, {"measurement": "Cmax", "setting": "[1]; human, in vivo, po, 1 mg, Cmax", "result": "0.98 ± 0.26", "unit": "ng/mL"}, {"measurement": "Vd/F", "setting": "[1]; human, in vivo, po, 1 mg", "result": "823 ± 249", "unit": "L"}, {"measurement": "half-life", "setting": "[1]; human, in vivo, po, 1 mg", "result": "17.5 ± 3.83", "unit": "h"}, {"measurement": "Tmax", "setting": "[1]; human, in vivo, po, 1 mg, tmax", "result": 6, "unit": "h"}, {"measurement": "AUC0-∞", "setting": "[1]; human, in vivo, po, 2 mg", "result": "57.8 ± 19.1", "unit": "ng·h/mL"}, {"measurement": "AUC(0-t)", "setting": "[1]; human, in vivo, po, 2 mg", "result": "54.0 ± 17.6", "unit": "ng·h/mL"}, {"measurement": "Cmax", "setting": "[1]; human, in vivo, po, 2 mg", "result": "1.54 ± 0.53", "unit": "ng/mL"}, {"measurement": "Vz/F", "setting": "[1]; human, in vivo, po, 2 mg", "result": "889 ± 241", "unit": "L"}, {"measurement": "t1/2", "setting": "[1]; human, in vivo, po, 2 mg", "result": "16.7 ± 4.12", "unit": "h"}, {"measurement": "AUC(0-t)", "setting": "[1]; human, in vivo, po, 2 mg, AUC0-t", "result": "55 ± 18", "unit": "ng·h/mL"}, {"measurement": "AUC(0-inf)", "setting": "[1]; human, in vivo, po, 2 mg, AUC0-∞", "result": "58.1 ± 18.8", "unit": "ng·h/mL"}, {"measurement": "Cmax", "setting": "[1]; human, in vivo, po, 2 mg, Cmax", "result": "1.59 ± 0.49", "unit": "ng/mL"}, {"measurement": "Vd/F", "setting": "[1]; human, in vivo, po, 2 mg", "result": "894 ± 328", "unit": "L"}, {"measurement": "half-life", "setting": "[1]; human, in vivo, po, 2 mg", "result": "16.4 ± 3.46", "unit": "h"}, {"measurement": "Tmax", "setting": "[1]; human, in vivo, po, 2 mg, tmax", "result": 6, "unit": "h"}, {"measurement": "AUC0-∞", "setting": "[1]; human, in vivo, po, 4 mg", "result": "123 ± 44.6", "unit": "ng·h/mL"}, {"measurement": "AUC(0-t)", "setting": "[1]; human, in vivo, po, 4 mg", "result": "119 ± 43.4", "unit": "ng·h/mL"}, {"measurement": "Cmax", "setting": "[1]; human, in vivo, po, 4 mg", "result": "3.59 ± 1.40", "unit": "ng/mL"}, {"measurement": "Vz/F", "setting": "[1]; human, in vivo, po, 4 mg", "result": "866 ± 393", "unit": "L"}, {"measurement": "t1/2", "setting": "[1]; human, in vivo, po, 4 mg", "result": "16.2 ± 4.15", "unit": "h"}, {"measurement": "AUC(0-t)", "setting": "[1]; human, in vivo, po, 4 mg, AUC0-t", "result": "120 ± 41.5", "unit": "ng·h/mL"}, {"measurement": "AUC(0-inf)", "setting": "[1]; human, in vivo, po, 4 mg, AUC0-∞", "result": "125 ± 46", "unit": "ng·h/mL"}, {"measurement": "Cmax", "setting": "[1]; human, in vivo, po, 4 mg, Cmax", "result": "3.58 ± 1.39", "unit": "ng/mL"}, {"measurement": "Vd/F", "setting": "[1]; human, in vivo, po, 4 mg", "result": "854 ± 294", "unit": "L"}, {"measurement": "half-life", "setting": "[1]; human, in vivo, po, 4 mg", "result": "17.1 ± 5.51", "unit": "h"}, {"measurement": "Tmax", "setting": "[1]; human, in vivo, po, 4 mg, tmax", "result": 5.01, "unit": "h"}, {"measurement": "half-life", "setting": "[1]; human, in vivo", "result": "17.1 ± 5.5", "unit": "h"}, {"measurement": "deaths or serious adverse events", "setting": "[1]; single 1 mg, 2 mg, 4 mg doses, healthy adults", "result": "no deaths or serious adverse events"}, {"measurement": "AUC(0-t)", "setting": "[2]; human, in vivo, 2.5 mg", "result": "~81.3", "unit": "ng·h/mL"}, {"measurement": "AUC(0-inf)", "setting": "[2]; human, in vivo, 2.5 mg, AUC∞", "result": "~85", "unit": "ng·h/mL"}, {"measurement": "Cmax", "setting": "[2]; human, in vivo, 2.5 mg, mean Cmax", "result": "~2.49", "unit": "ng/mL"}, {"measurement": "Tmax", "setting": "[2]; human, in vivo, 2.5 mg, median Tmax", "result": "~6", "unit": "h"}, {"measurement": "CL/F", "setting": "[2]; human, in vivo, po, 2 mg", "result": "612 ± 303", "unit": "mL/min"}, {"measurement": "AUC(0-inf)", "setting": "[2]; human, in vivo, po, 2 mg, AUC0-inf", "result": "64.2 ± 22.6", "unit": "ng·h/mL"}, {"measurement": "AUC(0-t)", "setting": "[2]; human, in vivo, po, 2 mg", "result": "59.8 ± 20.9", "unit": "ng·h/mL"}, {"measurement": "Cmax", "setting": "[2]; human, in vivo, po, 2 mg, Cmax", "result": "1.71 ± 0.56", "unit": "ng/mL"}, {"measurement": "half-life", "setting": "[2]; human, in vivo, po, 2 mg, T½", "result": "17.7 ± 5.8", "unit": "h"}, {"measurement": "Vd/F", "setting": "[2]; human, in vivo, po, 2 mg", "result": "884 ± 382", "unit": "L"}, {"measurement": "Tmax", "setting": "[2]; human, in vivo, po, 2 mg, tmax", "result": 6, "unit": "h"}, {"measurement": "T½", "setting": "[2]; human, in vivo, po, 2.5 mg", "result": "16.7 ± 7.4", "unit": "h"}, {"measurement": "Vz/F", "setting": "[2]; human, in vivo, po, 2.5 mg", "result": "809 ± 406", "unit": "L"}, {"measurement": "AUC(0-inf)", "setting": "[2]; human, in vivo, po, 2.5 mg, AUC0-inf", "result": "84.5 ± 34.2", "unit": "ng·h/mL"}, {"measurement": "AUC(0-t)", "setting": "[2]; human, in vivo, po, 2.5 mg", "result": "77.8 ± 30.4", "unit": "ng·h/mL"}, {"measurement": "Cmax", "setting": "[2]; human, in vivo, po, 2.5 mg, Cmax", "result": "2.26 ± 0.67", "unit": "ng/mL"}, {"measurement": "Tmax", "setting": "[2]; human, in vivo, po, 2.5 mg, Tmax", "result": 5, "unit": "h"}, {"measurement": "half-life", "setting": "[2]; human, in vivo, po, 2.5 mg, T½", "result": "19 ± 6.6", "unit": "h"}, {"measurement": "Vd/F", "setting": "[2]; human, in vivo, po, 2.5 mg", "result": "915 ± 390", "unit": "L"}, {"measurement": "half-life", "setting": "[2]; human, in vivo, t1/2", "result": "16.7 ± 7.4", "unit": "h"}, {"measurement": "deaths", "setting": "[2]; single 2 mg and 2.5 mg doses, healthy adults", "result": "no deaths"}]}
